# Data reported in patent US10806729B2, “Quinoline derivatives for use in the treatment or prevention of viral infection” (ABIVAX, priority 2015, dated 2020).
# Entries after “also recorded” stand apart in the source; their conditions may differ.
# Assays:
# [1] = test system: HIV-1 strain Ada-MR5; experiment: HIV-1 p24 production in infected activated PBMCs (ELISA); format: cell-based; details: stimulated PBMCs, supernatant 6 days post-infection, increasing concentrations
# Text: FIG. 1. Potency of quinoline derivatives to inhibit HIV-1 production in PBMC- and macrophages-infected cells. […] Each point represents 6 donors. B) HIV-1 strain YU2 was used to infect triplicate of monocyte derived-macrophages from different donors in the absence or presence of increasing concentrations of Compound 22. […] Each point represents 8 donors.
# Buffy coats from HIV-negative individuals were obtained from the local blood donation center in Zurich, Switzerland (http://www.blutspendezurich.ch/) and Centre de transfusion sanguine Montpellier. Human peripheral blood mononuclear cells (PBMCs) were isolated by Ficoll (Axis-Shield PoC AS) gradient centrifugation. The cells have then been cultivated at 37° C., 5% CO2 to a density of 1×10^6 cells/mL in RPMI Glutamax medium (Life Technologies Ref 61870-010) supplemented with 10% fetal calf serum (FCS) (Thermo Fischer Ref SV30160.03), 1000 U/mL of IL2 (Peprotech Ref 200-02) and 5 μg/mL of PHA (Roche Ref 1249738) for activation. Three days later, cells have been pooled and resuspended to a density of 1×10^6 cells/mL in RPMI Glutamax medium supplemented with 10% fetal calf serum (FCS) 1000 U/mL of IL-2 for infection. HIV-1 infection has been performed with 10 μg of Ada-M R5 HIV strain per mL of cells for 4 hours. […]
# Cells were treated with 0.01 μM up to 30 μM and p24 antigen levels were monitored in culture supernatant over a 12 day period. […]
# [2] = test system: HIV-1
# Experimental: Resistance to Compound 22 was tested on human PBMCs and compared to current therapies. […] Various classes of antiviral agents can affect the life cycle of HIV-1 in different manners. […] The selection of drug resistant mutants in vitro can be readily accomplished by maintaining the virus in a state of sub-optimal growth, regulated by slowly increasing the amount of drug pressure applied. This technique mimics the consequences of drug therapy in patients. Therefore, in this way, novel compounds can be assessed for their selection profile in order to evaluate the likelihood of emergence of HIV-1 drug resistance in future clinical trials. In addition, combinations of drugs can be investigated in the same manner.
# [3] = test system: HIV-1 genome (YU2); experiment: Deep sequencing of virus from treated infected primary macrophages and after amplification in PBMCs; format: cell-based; details: deep sequencing across HIV-1 genome, treated vs untreated samples
# Text: To test for emergence and/or selection of mutations associated with Compound 22 treatment, we applied a deep sequencing approach for sensitive detection of low-frequency viral variants across the entire HIV-1 genome. Viruses derived from treated and untreated infected primary macrophages of 4 different donors were sequenced and reads not aligning to human genome were aligned to YU2 sequence using gsnap, as detailed in Wu et al. (Fast and SNP-tolerant detection of complex variants and splicing in short reads. Bioinformatics 26, 873-881 (2010)).
# To ascertain that amplification of viruses from treated samples will not mutate when amplified in PBMCs, they were sequenced following amplification with or without drug pressure.
# [4] = test system: alternative splicing events of endogenous genes; experiment: RT-PCR analysis of global alternative splicing events in PBMC samples; format: cell-based, human
# Text: Quantification of non-viral RNA splicing is achieved using the protocols detailed in […] et al. (Multiple alternative splicing markers for ovarian cancer. Cancer Res. 68, 657-663 (2008)) and Venables et al. (Cancer-associated regulation of alternative splicing. Nat. Struct. Mol. Biol. 16, 670-676 (2009)). […] These 382 alternative splicing events (ASEs) represent a high throughput random snapshot of global alterations of alternative splicing. We performed high throughput PCR analysis of these (essentially random) 382 ASEs on multiple PBMC samples, either from untreated (cells) or treated with DMSO, Compound 22 or with the control antiviral drug (Darunavir). Analysis of the data allowed further stringent quality controls; ASEs were only considered if >75% of the products ran at the expected mobilities (i.e. if the reactions were pure) and if total expected PCR concentration was higher than 20 nM (i.e. if the reactions were strong) which led to 264 remaining ASEs.
# [5] = test system: HIV RNA splicing; experiment: Sequence capture and 454 pyrosequencing of HIV RNA in infected PBMCs; format: cell-based, HIV-1
# Experimental: To test whether Compound 22 influences the splicing of HIV RNA in infected cells, an array-based sequence capture was performed using a customized library probes targeting HIV sequences to get rid of cellular RNA. The probes were used to capture cDNAs prepared from infected treated and untreated PBMCs. After double capture, libraries were prepared and sequenced using 454 pyrosequencing (according to GS junior method manual). The average size of the reads around 400 bp allowed unambiguous assembly of viral genome from untreated sample (after 3 and 6 days of infection) using reads that were not mapped to human genome (hg19). All sequencing data were analysed using gsnap, as detailed in Wu et al. (Fast and SNP-tolerant detection of complex variants and splicing in short reads. Bioinformatics 26, 873-881 (2010)).
structure (smiles),measurement,setting,value
"FC(F)(F)Oc1ccc(Nc2ccc3cccc(Cl)c3n2)cc1 [Compound 22, 8-chloro-N-(4-(trifluoromethoxy)phenyl)quinolin-2-amine]",inhibition of HIV-1 replication (p24 antigen),[1],dose dependent inhibition
same,genotoxicity,[2]; conclusion drawn from the mutation selection results,not genotoxic
same,Time of Selection (weeks),"[2]; human PBMCs, increasing drug pressure",24 weeks
same,resistance-inducing mutations detected after treatment,[2]; treatment for at least 24 weeks,no resistance-inducing mutations detected
same,selection of specific viral mutations,[3],does not select for specific mutations; also recorded: unlikely to select for specific viral mutations
same,selection of specific viral mutations,[3]; listed as compound 22,do not select for HIV specific mutations
same,global effect on pre-mRNA splicing,[4],no global effect
same,effect on spliced HIV RNA,[5],favours spliced HIV RNA
same,coverage of viral genome (number of reads),[5]; 3 days post infection,4149 reads
same,reads corresponding to splice junctions,[5]; 3 days post-infection,17.4%
same,number of reads,[5]; 6 days post-infection,20 585
same,reads corresponding to splice junctions,[5]; 6 days post-infection,13.3%
